Earlier results, collected in patent US20020122835A1, “Compositions for enhancing muscle tissue recovery and repair” (priority 2001, published 2002).

Key:
[1] = oral administration, human volunteers; Kobayashi et al 1998

Compound: CCNC(=O)CC[C@H](N)C(=O)O [L-theanine]
- safety in animal experiments: safe
- feeling of relaxation [1]: caused a feeling of relaxation
